Key:
Experiment in all cases: relative viability (nuclei count vs DMSO), 5 days (fraction); higher = more cells survive
[1] = compound: NCC(=O)Nc1ccc(-n2nc(C(F)(F)F)cc2-c2ccc3c(ccc4ccccc43)c2)cc1 + O=C(c1cc(Cc2n[nH]c(=O)c3ccccc23)ccc1F)N1CCN(C(=O)C2CC2)CC1 [Olaparib] (partner 8 µM)
Procedure, shortened: (§1)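 Lung cancer cell lines were seeded in 1536-well plates and dosed by pin tool the next day, with either a single drug or a fixed anchor-drug dose combined with five library-drug doses (not always all listed) spaced in √10 steps. Five days later, one step fixed the cells and stained their nuclei (final 0.05% Triton X-100, 1% formaldehyde, 1 ug/ml Hoechst), and nuclei were counted on 4× images. Relative viability is the nuclei count in treated wells divided by the count in vehicle wells, and each value is the median of duplicate plates.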

[2] = compound: NCC(=O)Nc1ccc(-n2nc(C(F)(F)F)cc2-c2ccc3c(ccc4ccccc43)c2)cc1 + N=C(N)NC(=N)NCCc1ccccc1 [Phenformin] (partner 250 µM)
Procedure, shortened: as §1

kb NB 142-70 + AZD7762 = compound: C1CSC2=C(C(=O)N1)SC3=C2C=C(C=C3)O [kb NB 142-70] + NC(=O)Nc1cc(-c2cccc(F)c2)sc1C(=O)N[C@H]1CCCNC1 [AZD7762] (partner 0.2 µM)
Procedure, shortened: as §1

[3] = compound: C1CSC2=C(C(=O)N1)SC3=C2C=C(C=C3)O [kb NB 142-70] + CCNC(=O)c1noc(-c2cc(C(C)C)c(O)cc2O)c1-c1ccc(CN2CCOCC2)cc1 [Luminespib] (partner 0.01 µM)
Procedure, shortened: as §1

[4] = compound: C1CSC2=C(C(=O)N1)SC3=C2C=C(C=C3)O [kb NB 142-70] + CC(=O)Nc1cccc(-n2c(=O)n(C3CC3)c(=O)c3c(Nc4ccc(I)cc4F)n(C)c(=O)c(C)c32)c1 [Trametinib] (partner 0.02 µM)
Procedure, shortened: as §1

| Cell Line | relative viability ([1]; first compound 0.02 µM) | relative viability ([1]; first compound 0.06325 µM) | relative viability ([1]; first compound 0.2 µM) | relative viability ([1]; first compound 0.6325 µM) | relative viability ([1]; first compound 2 µM) | relative viability ([2]; first compound 0.02 µM) | relative viability ([2]; first compound 0.06325 µM) | relative viability ([2]; first compound 0.2 µM) | relative viability ([2]; first compound 0.6325 µM) | relative viability ([2]; first compound 2 µM) | relative viability (kb NB 142-70 + AZD7762; first compound 0.1 µM) | relative viability (kb NB 142-70 + AZD7762; first compound 1 µM) | relative viability (kb NB 142-70 + AZD7762; first compound 3.162 µM) | relative viability ([3]; first compound 0.1 µM) | relative viability ([3]; first compound 1 µM) | relative viability ([3]; first compound 3.162 µM) | relative viability ([4]; first compound 0.1 µM) | relative viability ([4]; first compound 1 µM) | relative viability ([4]; first compound 3.162 µM) |
| --- | --- | --- | --- | --- | --- | --- | --- | --- | --- | --- | --- | --- | --- | --- | --- | --- | --- | --- | --- |
| EBC-1 | 0.693 | 0.774 | 0.836 | 0.623 | 0.7 |  |  |  |  |  |  |  |  |  |  |  |  |  |  |
| EKVX | 0.973 | 0.966 | 0.882 | 0.935 | 1.13 | 0.228 | 0.273 | 0.218 | 0.236 | 0.219 | 0.739 | 0.704 | 0.684 | 0.81 | 0.857 | 0.943 | 0.357 | 0.378 | 0.296 |
| EMC-BAC-2 | 0.433 | 0.514 | 0.539 | 0.483 | 0.5 | 0.472 | 0.488 | 0.549 | 0.56 | 0.541 | 1.13 | 1.15 | 0.731 | 1.25 | 1.17 | 0.972 | 0.876 | 0.917 | 0.941 |
| EPLC-272H | 0.731 | 0.699 | 1.05 | 0.848 | 0.851 | 0.289 | 0.366 | 0.261 | 0.324 | 0.294 | 0.265 | 0.34 | 0.284 | 0.361 | 0.216 | 0.157 | 0.275 | 0.274 | 0.295 |
| H3255 | 0.593 | 0.593 | 0.577 | 0.607 | 0.622 | 0.343 | 0.341 | 0.364 | 0.334 | 0.435 | 0.86 | 0.925 | 0.999 | 0.881 | 0.845 | 1.12 | 0.585 | 0.602 | 0.593 |
| HARA | 1.07 | 1.25 | 0.762 | 0.982 | 1.06 | 0.479 | 0.407 | 0.456 | 0.441 | 0.53 | 0.292 | 0.393 | 1.07 | 0.625 | 0.769 | 0.456 | 0.464 | 0.726 | 1.02 |
| HCC-15 | 0.718 | 0.743 | 0.798 | 0.681 | 0.711 | 0.438 | 0.497 | 0.476 | 0.497 | 0.506 | 1.2 | 1.29 | 1.28 | 0.195 | 0.605 | 0.393 | 0.373 | 0.355 | 0.444 |
| HCC-44 | 1.05 | 0.994 | 0.953 | 0.941 | 0.956 | 0.308 | 0.252 | 0.25 | 0.202 | 0.284 | 0.99 | 1.06 | 1.06 | 1.03 | 1 | 0.405 | 1.06 | 1.06 | 1.1 |
| HCC-78 | 0.9 | 0.837 | 1.02 | 0.868 | 0.814 | 0.758 | 0.691 | 0.713 | 0.649 | 0.714 | 0.616 | 0.629 | 0.684 |  |  |  | 0.683 | 0.823 | 0.838 |

From the supplement of paper PMC10307832
